Results as given in paper PMC4862498, “PI4 Kinase Is a Prophylactic but Not Radical Curative Target in Plasmodium vivax-Type Malaria Parasites” (Antimicrobial Agents and Chemotherapy, 2016).
Values joined by “and” are separate entries in the source; they are usually repeats but may differ in a detail not shown here. Identical values can stand only once. “Also recorded” adds a separate entry of the source.

Assays:
[1] = tested on: P. cynomolgi sporozoite-infected rhesus macaques (hypnozoites, relapse); assay: Radical cure in P. cynomolgi sporozoite-infected rhesus macaques; type: in vivo, Plasmodium cynomolgi; details: group PQ-RC
Procedure: Sporozoites were harvested from P. cynomolgi-infected mosquitoes, washed with phosphate-buffered saline (PBS), and diluted to 100,000 sporozoites (spz)/ml in PBS. One-milliliter aliquots of sporozoites were prepared and injected into monkeys via intravenous (i.v.) injection.
(§1) Monkeys were treated according to the schedule shown in Table 1 (stratification of treatment groups is given in the supplemental material). During treatment, monkeys were weighed daily and received the compound via gavage, followed by gastric feeding (weight change during treatment is shown in Table S6 in the supplemental material). Monkeys in the prophylaxis groups (groups 691-proph and 599-proph) were treated ∼20 min after the i.v. sporozoite injection. The other monkeys were treated when all the monkeys in the experiment (except those in the prophylaxis group) were blood-stage patent (at day 11 p.i.). To kill the blood-stage parasites, all monkeys received a 5-day treatment of 7.5 mg/kg of body weight of chloroquine (CQ) (intramuscular [i.m.] injection), during compound dosing. KDU691 was formulated in 0.5% methylcellulose and 0.5% Tween 80 in water. LMV599 was formulated as a solid dispersion in a solution containing 5.6% (wt/wt) Tween 80–44.4% hydroxypropyl methylcellulose (HPMC) E3–38.9% Soluplus–11.1% vitamin E D-alphatocopheryl polyethylene glycol 1000 succinate (TPGS).
Parasitemia was closely monitored by thin-film analysis. Animals were trained to present for thigh pricks, which was followed by a reward. Thin-film slides were stained with 20% Giemsa stain, and at least 50 fields (±20,000 erythrocytes [RBCs]) were analyzed with a bright-field microscope (×1,200 magnification). As soon as all monkeys other than the prophylactic treatment groups were blood-stage positive, treatment was started as indicated above (Table 1). After the last day of compound dosing, the absence of blood-stage parasites was confirmed by thin smears. From day 23 p.i., monkeys were monitored daily for relapses. The KDU691 radical-cure (group 691-RC) treatment and control groups were monitored until the first relapse. The LMV599 control (group 599-C), radical-cure (group 599-RC), and PQ radical-cure (group PQ-RC) treatment groups were monitored until the second relapse or until day 100 p.i. (whichever came first). At the end of the study, monkeys that had relapsed received a 14-day primaquine treatment, with a final check 2 weeks after the last primaquine dose.
P. cynomolgi sporozoite production
A monkey was infected with […] P. cynomolgi M strain blood stage parasites, thawed from a first passage stock (i.e. blood stage parasites from a monkey infected with P. cynomolgi M strain sporozoites). For each batch of sporozoites needed, a single monkey was infected with P. cynomolgi blood stage parasites.
At day 11 and 12 post infection 9 mL infected blood was collected into a Lithium-heparinised tube. The blood was kept at 38°C and fed approximately 500 three to five days old female Anopheles stephensi mosquitoes Sind-Kasur strain Nijmegen (Nijmegen University Medical Centre St Radboud, Department of Medical Microbiology) using a glass feeder system as described by Ponnudurai et al.. After the second bleed, the monkey was cured by three daily intramuscular injections of 7.5 mg/kg chloroquine, monitored for parasite clearance 24 days after chloroquine treatment and returned to colony.
Mosquitoes were kept in climate chambers at 25 °C and 80% humidity and were fed 5% D -glucose on cotton pads daily. Seven days after feeding on the infected rhesus blood, oocyst numbers were determined in midguts of ten individuals, using 1% mercurochrome stain. Mosquitoes were given a second (uninfected) blood meal immediately afterwards to promote sporozoite maturation and invasion of the salivary glands. Sporozoites were isolated from the P. cynomolgi infected mosquitoes around day16 after the infected blood meal.
In vivo monkey infection and treatment procedures […]

[2] = Clinical chemistry, hematology, weight and clinical observation of treated monkeys; type: in vivo, rhesus macaques (Macaca mulatta)
Procedure: as §1
Blood samples were collected for clinical evaluation and pharmacokinetic (PK) analysis (see Table S2 in the supplemental material).
When the first relapse was observed, monkeys of the KDU691 experiment were radically cured with primaquine (PQ)/CQ (oral administration of 1.8 mg/kg PQ for 14 days together with i.m. administration of 7.5 mg/kg CQ for the first five days of PQ treatment) to cure both blood stage and liver stage parasites, […]
The monkeys of the LMV599/PQ experiment were cured with a five day CQ treatment (7.5 mg/kg, i.m. administration) at the first relapse and were monitored until the second relapse after which they were cured with CQ (7.5 mg/kg, intramuscular (i.m.) for five days) plus PQ (1.8 mg/kg for 14 days).
Table S2: PK and clinical blood sampling schedule in monkeys.
Groups are named 691 for KDU691 and 599 for LMV599 treatment groups, followed by -C for control group (no compound), -proph for prophylactic treatment (treated immediately after infection), and -RC for radical cure treatment (treated when blood stage positive). […]
the face and chest areas were very yellow. Therefore the 691-RC group (treated from d11 to d15 pi) was monitored by daily clinical chemistry analysis during dosing to be compared with untreated 691-C. […]
sampling of the single dose prophylaxis group at day 0, 1, 7 and 100. The lack of aberrant clinical […]
as radical cure compound, during which also clinical sampling was performed daily. a: only clinical chemistry samples were taken. *: t = 24 sample was taken only on the 1st day of dosing.
Group name Clin. chem PK sampling PK time points
Hematology (h post dosing)
691-proph 1st and 5th day of dosing t = 0, 1, 4, 6 and 24*
691-RC Dailya 1st and 5th day of dosing t = 0, 1, 4, 6 and 24* […]
599-RC Daily 1st and 4th day of dosing t = 0, 1, 2, 4 and 24
Clinical chemistry and hematology
For the clinical analysis serum from 1 mL of clotted blood was analysed using the Cobas Integra 400 plus fully automated chemistry analyser. The following clinical parameters were determined: Alkaline phosphatase; Alanine Aminotransferase; Albumin: Aspartate aminotransfeasr; Bilirubin; Calcium; Cholesterol; Creatine kinase; Creatinine; C-reactive protein: Iron; Phosphate; Gamma-glutamyl transpeptidase; Glucose; Hemoglobin; Potassium; Lactate dehydrogenase; Sodium; Total protein; Urea Haematological parameters were determined from 1 mL EDTA-blood with a Sysmex XT-2000iV automated system. The following hematological parameters were determined: Basophilic granulocytes; Eosinophilic granulocytes; Erythrocytes; Hematocrit; Leucocytes; Leucocyte differentiation; Lymphocytes; Mean corpusculair hemoglobin; Mean corpusculair hemoglobin concentration; Mean corpusculair volume; Neutrophilic granulocytes; Red cell distribution width; Thrombocytes […]
Liver tissue samples were excised, dipped in PBS, gently blotted with absorbent paper, dried, weighed and stored at -20 °C until further analysis. […]

[3] = tested on: P. cynomolgi hypnozoites in primary rhesus hepatocytes; design: method as in PMID 24366744; details: P. cynomolgi in vitro liver-stage assay; read-out: IC50 against hypnozoites; cited from earlier work
[4] = tested on: P. cynomolgi developing EEFs (liver schizonts) in primary rhesus hepatocytes; design: method as in PMID 24366744; details: P. cynomolgi in vitro liver-stage assay; read-out: IC50 against developing EEFs; cited from earlier work
[5] = group PQ-RC, 1.8 mg/kg, % of weight at d0

## COc1cc(NC(C)CCCN)c2ncccc2c1 (stereo not drawn) [PQ, primaquine]
[1]; 1.8 mg/kg oral for 5 days from day 11 p.i. plus CQ, individual monkeys, ND = not detected up to day 100 p.i., 1.8 mg/kg
  Day p.i. to first relapse: 47 day p.i. and 68 day p.i.
[1]; 1.8 mg/kg oral for 5 days, monitored up to 100 days p.i., 1.8 mg/kg
  animals radically cured: two out of four; also recorded: two were completely cured
[1]; 1.8 mg/kg oral for 5 days, individual monkeys, ND = not detected up to day 100 p.i.
  Day p.i. to second relapse: 100 day p.i.
[1]; 1.8 mg/kg oral for 5 days, only two of the four animals relapsed, delay P = 0.000237
  day p.i. to first relapse, mean ± SD of the relapsing animals: 57.5 ± 14.8 day p.i.
[1]; individual monkeys, baseline, before dosing started
  Day p.i. to primary parasitemia: 9 day p.i. and 10 day p.i. and 11 day p.i.
[2]; [5]
  Weight change d1: -0.8%
  Weight change d2: -1.2%
  Weight change d3: -2.6%
  Weight change d4: -2.9%
[2]; primaquine treatment, 1.8 mg/kg for 5 days, control 2.7%
  mean weight loss: 2.9%
[3]
  IC50: 840 nM
[4]
  IC50: 370 nM
